Reference: patent publication US20110098296A1, “Thiazole And Oxazole Kinase Inhibitors” (priority 2007, published 2011)

Target: T1, EGFR (Homo sapiens, UniProt P00533)
T1 construct: made in house; host or cells: baculovirus expression system
Experiment: EGFR substrate phosphorylation assay (HTRF)
Type: biochemical
Conditions: Method (A): Enzyme Mix incubated with compound at 20° C. for 1 hr, reaction started by adding Substrate Mix
Outline: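 Baculovirus-expressed kinase (0.8 nM EGFR or 10 nM ErbB2 in enzyme mix) with Peptide C 0.8 μM and ATP 20 μM (substrate-mix levels), MOPS pH 7.5, MnCl2; 90 min, 20 °C, HTRF anti-phosphotyrosine. Method A adds 1 h enzyme–compound preincubation; B none. pIC50, final compound 0.00027–47.6 μM.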

T1 sequence (P00533 25-1210): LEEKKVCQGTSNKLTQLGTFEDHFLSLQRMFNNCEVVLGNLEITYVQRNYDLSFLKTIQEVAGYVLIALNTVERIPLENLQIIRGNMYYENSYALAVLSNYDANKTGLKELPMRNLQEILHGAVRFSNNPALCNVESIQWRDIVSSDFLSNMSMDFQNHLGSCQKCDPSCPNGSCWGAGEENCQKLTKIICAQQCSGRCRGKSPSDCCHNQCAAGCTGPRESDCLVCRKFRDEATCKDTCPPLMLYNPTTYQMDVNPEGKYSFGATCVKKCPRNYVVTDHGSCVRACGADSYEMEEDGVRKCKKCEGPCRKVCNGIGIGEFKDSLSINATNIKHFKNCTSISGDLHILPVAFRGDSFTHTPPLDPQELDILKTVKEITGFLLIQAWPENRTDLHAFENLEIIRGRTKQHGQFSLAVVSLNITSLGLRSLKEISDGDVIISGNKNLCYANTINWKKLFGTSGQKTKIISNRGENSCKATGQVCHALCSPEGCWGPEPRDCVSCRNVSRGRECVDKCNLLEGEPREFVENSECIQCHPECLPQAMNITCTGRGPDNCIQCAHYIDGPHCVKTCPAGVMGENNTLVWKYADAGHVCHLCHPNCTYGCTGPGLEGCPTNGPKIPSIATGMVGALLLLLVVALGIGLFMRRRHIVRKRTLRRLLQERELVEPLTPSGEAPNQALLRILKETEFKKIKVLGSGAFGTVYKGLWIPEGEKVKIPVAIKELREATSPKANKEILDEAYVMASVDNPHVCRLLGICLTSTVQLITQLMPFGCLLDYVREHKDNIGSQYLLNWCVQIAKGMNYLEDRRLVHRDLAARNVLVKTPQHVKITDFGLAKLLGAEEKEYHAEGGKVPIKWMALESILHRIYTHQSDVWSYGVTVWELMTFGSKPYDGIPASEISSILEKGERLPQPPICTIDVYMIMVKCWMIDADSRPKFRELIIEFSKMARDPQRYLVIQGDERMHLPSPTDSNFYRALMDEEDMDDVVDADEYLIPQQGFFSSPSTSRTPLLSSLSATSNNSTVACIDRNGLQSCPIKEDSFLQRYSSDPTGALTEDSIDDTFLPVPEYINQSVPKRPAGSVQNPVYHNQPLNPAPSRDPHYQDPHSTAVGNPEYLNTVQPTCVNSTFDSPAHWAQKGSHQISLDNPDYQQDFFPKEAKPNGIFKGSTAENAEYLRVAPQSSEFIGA

SMILES	IC50 [nM]
COc1ccc(Nc2nccc(-c3sc(N)nc3-c3cccc(NC(=O)c4c(F)cccc4F)c3)n2)cc1N1CCNCC1 [Example 18, N-[3-(2-Amino-5-{2-[(4-methoxy-3-piperaziN-1-ylphenyl)amino]pyrimidiN-4-yl}-1,3-thiazol-4-yl)phenyl]-2,6-difluorobenzamide]	< 100
CCNc1nc(-c2cccc(NC(=O)C3CC3)c2)c(-c2ccnc(Nc3ccc(OCCN4CCCC4)c(Cl)c3)n2)s1 [Example 63, N-{3-[5-{2-[(3-Chloro-4-{[2-(1-pyrrolidinyl)ethyl]oxy}phenyl)amino]-4-pyrimidinyl}-2-(ethylamino)-1,3-thiazol-4-yl]phenyl}cyclopropanecarboxamide]	< 100
Nc1nc(-c2cccc(C(=O)Nc3c(F)cccc3F)c2)c(-c2ccnc(Nc3cccc(CN4CCCC4)c3)n2)s1 [Example 77, 3-[2-Amino-5-(2-{[3-(1-pyrrolidinylmethyl)phenyl]amino}-4-pyrimidinyl)-1,3-thiazol-4-yl]-N-(2,6-difluorophenyl)benzamide]	< 100
Cc1nc(-c2cccc(NC(=O)c3c(F)cccc3F)c2)c(-c2ccnc(Nc3ccc(OC4CCN(C(=O)OCc5ccccc5)CC4)c(F)c3)n2)s1 [Example 106]	< 100
CCc1nc(-c2cccc(NC(=O)c3c(F)cccc3F)c2)c(-c2ccnc(Nc3cccc(CN4CCCC4)c3)n2)s1 [Example 115, N-{3-[2-Ethyl-5-(2-{[3-(1-pyrrolidinylmethyl)phenyl]amino}-4-pyrimidinyl)-1,3-thiazol-4-yl]phenyl}-2,6-difluorobenzamide]	< 100
Cc1nc(-c2cccc(NC(=O)c3cc(F)ccc3F)c2)c(-c2ccnc(Nc3ccc(OCCN(C)C)c(Cl)c3)n2)o1 [Example 142]	< 100

Continued, values first:

IC50 [nM]	SMILES
< 100	COc1cc(Nc2nccc(-c3sc(N)nc3-c3cccc(NC(=O)c4c(F)cccc4F)c3)n2)cc(OC)c1OC [Example 16, N-[3-(2-Amino-5-{2-[(3,4,5-trimethoxyphenyl)amino]pyrimidiN-4-yl}-1,3-thiazol-4-yl)phenyl]-2,6-difluorobenzamide]
100 to 1000	Cc1cc(-c2sc(N)nc2-c2cccc(NC(=O)c3c(F)cccc3F)c2)nc(Nc2cccc(F)c2)n1 [Example 48, N-[3-(2-Amino-5-{2-[(3-fluorophenyl)amino]-6-methyl-4-pyrimidinyl}-1,3-thiazol-4-yl)phenyl]-2,6-difluorobenzamide]
< 100	Cc1nc(-c2cccc(NC(=O)c3c(F)cccc3F)c2)c(-c2ccnc(Nc3ccc(OCCN(C)C)c(Cl)c3)n2)s1 [Example 103, N-[3-(5-{2-[(3-Chloro-4-{[2-(dimethylamino)ethyl]oxy}phenyl)amino]-4-pyrimidinyl}-2-methyl-1,3-thiazol-4-yl)phenyl]-2,6-difluorobenzamide]
